Measurements: US20250129054A1 (Terran Biosciences Inc., priority 2022, published 2025)

Assay: Serial tail vein bleed PK study in SD rats: methylone measured in plasma after IV or oral methylone or oral methylone prodrugs
Format: in vivo, Sprague Dawley rats
Conditions: for Plasma Concentrations of metabolite methylone: 10 mg/kg, rat; for Tlast: analyte methylone in plasma, oral methylone THP 1-ethyl ester prodrug 10 mg/kg, male SD rats
Experimental: A pharmacokinetic (PK) study was performed in three male Sprague-Dawley (SD) rats following intravenous (IV) and oral (PO) administration of methylone at 1 mg/kg (IV) and 10 mg/kg (PO) respectively, or test compounds (prodrugs of methylone) at 10 mg/kg (PO). Parent compound (methylone) was measured in plasma.
Samples were sent for method optimization and measurement of parent compound (methylone) via unique calibration lines and following acceptance QC's. Dose formulation concentrations were also measured, and PK parameters were determined (Cmax (ng/mL), Tmax (hr), Cl (ml/min/kg), Vdss (L/kg), t½(hr), AUC0-t (ng/mL*hr), AUC0-inf (ng/mL*hr), MIRT (hr), Bioavailability ([…]) where warranted) using WinNon Lin software. Data (including bioanalytical results and assay performance) were reported in a tabulated format.
Formulation for PO Administration: For PO dosing, the prodrug was formulated in 10% DMSO/20% PEG400/70% water to a concentration of 2 mg free metabolite material/mL. This provided a dose of 10 mg free metabolite/kg when the prodrug was administered PO in 5 mL/kg dosing volumes.
Formulation for IV administration: For IV dosing, rac-methylone was formulated as solution in saline to a concentration of 0.5 mg free metabolite material/mL. This provided a dose of 1 mg free metabolite/kg when administered IV in 2 mL/kg dosing volumes.
The pharmacokinetic properties of the synthesized methylone prodrugs after oral administration in a rat model were assessed. The concentration of methylone was measured in each rat at various sampling timepoints after IV or oral administration of rac-methylone or the synthesized methylone prodrugs to rats.
Dose formulations were made at equivalent concentrations of active compound (methylone) adjusted for molecular weight of the compounds. The synthesized methylone prodrugs or analogs were dosed at 10 mg/kg oral (PO) nominal dose. Nominal doses were used in PK parameter determinations. The parent compound (methylone) was dosed at 1 mg/kg intravenous (IV) and 10 mg/kg (PO).

[1] = 0.500 h after oral dosing of the prodrug, individual animals
[2] = 0.500 h after oral dosing of the prodrug, mean
[3] = 1.00 h after oral dosing of the prodrug, individual animals
[4] = 1.00 h after oral dosing of the prodrug, mean
[5] = 2.00 h after oral dosing of the prodrug, individual animals
[6] = 2.00 h after oral dosing of the prodrug, mean
[7] = 4.00 h after oral dosing of the prodrug, individual animals
[8] = 4.00 h after oral dosing of the prodrug, mean
[9] = 7.00 h after oral dosing of the prodrug, individual animals
[10] = 7.00 h after oral dosing of the prodrug, mean
[11] = 24.0 h after oral dosing of the prodrug, individual animals
[12] = 24.0 h after oral dosing of the prodrug, mean

For `CCOC(=O)N(C)C(C)C(=O)c1ccc2c(c1)OCO2` (centres unmarked) [Compound 1A, Ethyl N-[2-(1,3-benzodioxol-5-yl)-1-methyl-2-oxo-ethyl]-N-methyl-carbamate], the “Plasma Concentrations of metabolite methylone” value (shortened to “Plasma Concentrations”) [1] was “BLQ (Below Lower Limit of Quantification (0.5 ng/mL))”, the “Plasma Concentrations” value [2] was “BLQ (Below Lower Limit of Quantification (0.5 ng/mL))” and the “Plasma Concentrations” value [3] was “BLQ (Below Lower Limit of Quantification (0.5 ng/mL))”. For the same molecule, the “Plasma Concentrations” value [4] was “BLQ (Below Lower Limit of Quantification (0.5 ng/mL))”, the “Plasma Concentrations” value [5] was “BLQ (Below Lower Limit of Quantification (0.5 ng/mL))” and the “Plasma Concentrations” value [6] was “BLQ (Below Lower Limit of Quantification (0.5 ng/mL))”. The “Plasma Concentrations” value [7] was “BLQ (Below Lower Limit of Quantification (0.5 ng/mL))”, the “Plasma Concentrations” value [8] was “BLQ (Below Lower Limit of Quantification (0.5 ng/mL))” and the “Plasma Concentrations” value [9] was “BLQ (Below Lower Limit of Quantification (0.5 ng/mL))”. The “Plasma Concentrations” value [10] was “BLQ (Below Lower Limit of Quantification (0.5 ng/mL))”, the “Plasma Concentrations” value [11] was “BLQ (Below Lower Limit of Quantification (0.5 ng/mL))” and the “Plasma Concentrations” value [12] was “BLQ (Below Lower Limit of Quantification (0.5 ng/mL))”.

For `CC(C(=O)c1ccc2c(c1)OCO2)N(C)C(=O)CCCC(=O)O` (centres unmarked) [Compound 8D, 4-{[2-(2H-1,3-Benzodioxol-5-yl)-1-methyl-2-oxo-ethyl]-N-methylcarbamoyl}butyric acid], the “Plasma Concentrations” value [1] was “BLQ (Below Lower Limit of Quantification (0.5 ng/mL))”, the “Plasma Concentrations” value [2] was “BLQ (Below Lower Limit of Quantification (0.5 ng/mL))” and the “Plasma Concentrations” value [3] was “BLQ (Below Lower Limit of Quantification (0.5 ng/mL))”. The “Plasma Concentrations” value [4] was “BLQ (Below Lower Limit of Quantification (0.5 ng/mL))”, the “Plasma Concentrations” value [5] was “BLQ (Below Lower Limit of Quantification (0.5 ng/mL))” and the “Plasma Concentrations” value [6] was “BLQ (Below Lower Limit of Quantification (0.5 ng/mL))”. For the same molecule, the “Plasma Concentrations” value [7] was “BLQ (Below Lower Limit of Quantification (0.5 ng/mL))”, the “Plasma Concentrations” value [8] was “BLQ (Below Lower Limit of Quantification (0.5 ng/mL))” and the “Plasma Concentrations” value [9] was “BLQ (Below Lower Limit of Quantification (0.5 ng/mL))”. The “Plasma Concentrations” value [10] was “BLQ (Below Lower Limit of Quantification (0.5 ng/mL))”, the “Plasma Concentrations” value [11] was “BLQ (Below Lower Limit of Quantification (0.5 ng/mL))” and the “Plasma Concentrations” value [12] was “BLQ (Below Lower Limit of Quantification (0.5 ng/mL))”.

In the case of `CC(C(=O)c1ccc2c(c1)OCO2)N(C)C(=O)CCCC(=O)OC(C)(C)C` (centres unmarked) [Compound 3C, tert-Butyl 4-{[2-(2H-1,3-benzodioxol-5-yl)-1-methyl-2-oxo-ethyl]-N-methylcarbamoyl}butyrate], the “Plasma Concentrations” value [1] is reported as “BLQ (Below Lower Limit of Quantification (0.5 ng/mL))”, the “Plasma Concentrations” value [2] is reported as “BLQ (Below Lower Limit of Quantification (0.5 ng/mL))” and the “Plasma Concentrations” value [3] is reported as “BLQ (Below Lower Limit of Quantification (0.5 ng/mL))”. The “Plasma Concentrations” value [4] was “BLQ (Below Lower Limit of Quantification (0.5 ng/mL))”, the “Plasma Concentrations” value [5] was “BLQ (Below Lower Limit of Quantification (0.5 ng/mL))” and the “Plasma Concentrations” value [6] was “BLQ (Below Lower Limit of Quantification (0.5 ng/mL))”. For the same molecule, the “Plasma Concentrations” value [7] was “BLQ (Below Lower Limit of Quantification (0.5 ng/mL))”, the “Plasma Concentrations” value [8] was “BLQ (Below Lower Limit of Quantification (0.5 ng/mL))” and the “Plasma Concentrations” value [9] was “BLQ (Below Lower Limit of Quantification (0.5 ng/mL))”. The “Plasma Concentrations” value [10] was “BLQ (Below Lower Limit of Quantification (0.5 ng/mL))”, the “Plasma Concentrations” value [11] was “BLQ (Below Lower Limit of Quantification (0.5 ng/mL))” and the “Plasma Concentrations” value [12] was “BLQ (Below Lower Limit of Quantification (0.5 ng/mL))”.

Molecule “1-[[2-(1,3-Benzodioxol-5-yl)-1-methyl-2-oxo-ethyl]-methyl-carbamoyl]oxyethyl tetrahydropyran-4-carboxylate [Compound 6E]” has a Tlast (individual animal) of 7.00 h and a Tlast (mean) of 7.00 h.

For `COCCOC(=O)N(C)C(C)C(=O)c1ccc2c(c1)OCO2` (centres unmarked) [PE, 2-Methoxyethyl N-[2-(1,3-benzodioxol-5-yl)-1-methyl-2-oxo-ethyl]-N-methyl-carbamate], the “Plasma Concentrations” value [1] was “BLQ (Below Lower Limit of Quantification (0.5 ng/mL))”, the “Plasma Concentrations” value [2] was “BLQ (Below Lower Limit of Quantification (0.5 ng/mL))” and the “Plasma Concentrations” value [3] was “BLQ (Below Lower Limit of Quantification (0.5 ng/mL))”. For the same molecule, the “Plasma Concentrations” value [4] was “BLQ (Below Lower Limit of Quantification (0.5 ng/mL))”, the “Plasma Concentrations” value [5] was “BLQ (Below Lower Limit of Quantification (0.5 ng/mL))” and the “Plasma Concentrations” value [6] was “BLQ (Below Lower Limit of Quantification (0.5 ng/mL))”. For the same molecule, the “Plasma Concentrations” value [7] was “BLQ (Below Lower Limit of Quantification (0.5 ng/mL))”, the “Plasma Concentrations” value [8] was “BLQ (Below Lower Limit of Quantification (0.5 ng/mL))” and the “Plasma Concentrations” value [9] was “BLQ (Below Lower Limit of Quantification (0.5 ng/mL))”. For the same molecule, the “Plasma Concentrations” value [10] was “BLQ (Below Lower Limit of Quantification (0.5 ng/mL))”, the “Plasma Concentrations” value [11] was “BLQ (Below Lower Limit of Quantification (0.5 ng/mL))” and the “Plasma Concentrations” value [12] was “BLQ (Below Lower Limit of Quantification (0.5 ng/mL))”.

In the case of `CC(C(=O)c1ccc2c(c1)OCO2)N(C)C(=O)N1CCC(N2CCCCC2)CC1` (centres unmarked) [Compound 9A, N-[2-(1,3-Benzodioxol-5-yl)-1-methyl-2-oxo-ethyl]-N-methyl-4-(1-piperidyl)piperidine-1-carboxamide], the “Plasma Concentrations” value [1] is reported as “BLQ (Below Lower Limit of Quantification (0.5 ng/mL))”, the “Plasma Concentrations” value [2] is reported as “BLQ (Below Lower Limit of Quantification (0.5 ng/mL))” and the “Plasma Concentrations” value [3] is reported as “BLQ (Below Lower Limit of Quantification (0.5 ng/mL))”. The “Plasma Concentrations” value [4] was “BLQ (Below Lower Limit of Quantification (0.5 ng/mL))”, the “Plasma Concentrations” value [5] was “BLQ (Below Lower Limit of Quantification (0.5 ng/mL))” and the “Plasma Concentrations” value [6] was “BLQ (Below Lower Limit of Quantification (0.5 ng/mL))”. The “Plasma Concentrations” value [7] was “BLQ (Below Lower Limit of Quantification (0.5 ng/mL))”, the “Plasma Concentrations” value [8] was “BLQ (Below Lower Limit of Quantification (0.5 ng/mL))” and the “Plasma Concentrations” value [9] was “BLQ (Below Lower Limit of Quantification (0.5 ng/mL))”. For the same molecule, the “Plasma Concentrations” value [10] was “BLQ (Below Lower Limit of Quantification (0.5 ng/mL))”, the “Plasma Concentrations” value [11] was “BLQ (Below Lower Limit of Quantification (0.5 ng/mL))” and the “Plasma Concentrations” value [12] was “BLQ (Below Lower Limit of Quantification (0.5 ng/mL))”.
